Data from PMC8274846, “Biogenic nanoporous silicon carrier improves the efficacy of buparvaquone against resistant visceral leishmaniasis” (PLoS Neglected Tropical Diseases, 2021).

Experiments:
[1] = test system: axenic L.donovani amastigotes, AG83-R, SSG (SSG resistant strain generated from AG83); assay: microbe, parasite or virus in culture; type: cell-based; conditions: for Resistance index (RI), AG83-R, SSG: IC50 against drug resistant strain / IC50 against wild-type strain (AG83), axenic; for IC50: Leishmania donovani, read-out: Axenic IC50, AG83-R, SSG
Protocol: (§1) L. donovani AG83 (MHOM/IN/83/AG83) and GE1 (MHOM/IN/80/GE1F8R) promastigotes were routinely grown in medium 199 supplemented with 10% heat-inactivated fetal bovine serum, 2 mM L-glutamine, 20 mM HEPES, 100 U/mL penicillin, and 100 μg/mL streptomycin at 25°C. L. donovani amastigote forms were grown and maintained as described previously. Axenic amastigote forms were derived from promastigote forms by culturing them in MMA/20 (medium for axenic amastigote) at pH 5.5 [22]. Axenically grown amastigotes were maintained by sub-culture of 10^5 parasites/ml repeated every fifth day under experimental conditions of 37°C temperature and 5% CO2 environment.
(§2) SSG and PMM resistant L. donovani amastigotes were generated by using the methods described previously. […] The cultures were stabilized for three subcultures. Then, the drug concentration was increased until the cell population decreased approximately to 20% for each batch. Finally, when 90% cell population of the initial count was reduced, the phenotype generated was plated on medium 199 agar plates containing the same drug concentration, and a single colony was picked for culture in medium 199 liquid media at the same drug concentration. The cultured promastigotes are converted into amastigotes as described above. Drug pressure was withdrawn, and stability was checked at one, two, and four months. SSG and PMM resistant phenotype clones were labeled as AG83-R,SSG and AG83-R, PMM, respectively.
(§3) The antileishmanial activity of the drug specimens (BPQ+NP, BPQ, SSG, AmB, PMM, and MF) against the axenic amastigotes were evaluated based on the IC50 value, which is the concentration of the specimen required to kill 50% of the parasites. The parasites were first seeded into 96-well plates at a density of 1x10^5 amastigotes/well in 200 μL medium. Then, 10 μL of the drug candidates at various concentrations were added and the final volume was adjusted to […] medium. The number of amastigotes in the wells treated with each specimen were compared to those in the untreated control wells.
(§4) Microscopic examinations were performed in duplicates with various concentrations of pure drugs or buparvaquone-loaded nanoparticles and also for control wells. The amastigotes cells were counted for all cases using a hemocytometer. The mean of the control wells was considered as 100% survival. The counts in the treated wells at various concentrations were converted into percentages. Giemsa-stained slides of the macrophages infected with amastigotes were observed under a light microscope. Then the numbers of amastigotes and infected macrophages per 100 cells were counted for each slide. The percentage (%) of inhibition was calculated by using the equation %ofinhibition=C−T/C×100, (2) where C is the number of amastigotes/infected macrophages per 100 cells in the control well and T is the number of amastigotes/infected macrophages per 100 cells in the drug-treated well.
(§5) Origin version 6.1 software was used to calculate IC50 and CC50 values by plotting a graph of the percentage of inhibition at various concentrations of all the observations.

[2] = test system: axenic L.donovani amastigotes, AG83-R, PMM (PMM resistant strain generated from AG83); assay: microbe, parasite or virus in culture; type: cell-based; conditions: for Resistance index (RI), AG83-R, PMM: IC50 against drug resistant strain / IC50 against wild-type strain (AG83), axenic; for IC50: Leishmania donovani, read-out: Axenic IC50, AG83-R, PMM
Protocol: as §1, §2, §3, §4, §5

[3] = test system: axenic L.donovani amastigotes, GE1 (isolated strain resistant to SSG); assay: Antileishmanial activity against axenic amastigotes, GE1; type: cell-based; conditions: for Resistance index (RI), GE1: IC50 against drug resistant strain / IC50 against wild-type strain (AG83), axenic; for IC50: Leishmania donovani
Protocol: as §1, §3, §4, §5

[4] = test system: intracellular L.donovani amastigotes, GE1, in macrophages; assay: Antileishmanial activity against intracellular amastigotes, GE1; type: cell-based; conditions: for Selectivity index (SI), GE1: CC50/IC50, intracellular; for IC50: Leishmania donovani, Macrophage, mean ± σ, n = 4, read-out: Cellular IC50, GE1
Protocol: (§6) The intracellular antileishmanial activity was evaluated based on the reduction in the amastigote numbers in the infected macrophages after the treatment. The method was adapted from our previous work. Briefly, 4x10^6 amastigotes in 500 μL of RPMI-1640 suspension were added to each well containing macrophages with the macrophage: parasite ratio of 1:10. The plates were incubated for 4 h at 37°C in 5% CO2. After the parasite internalization period, cells were washed at least twice with fresh media to remove non-phagocytosed parasites. Then, the drug specimen suspended in 1 mL RPMI-1640 was added, and the samples were incubated for 72 h at 37°C in 5% CO2. The medium was aspirated, the coverslips were removed, and then fixed with methanol and air-dried. After staining with Giemsa, 100 cells on the glass discs were counted. Three independent experiments in quadruplicate for each concentration were performed.
as §4, §5

[5] = test system: axenic L.donovani amastigotes, wild-type AG83; assay: Antileishmanial activity against axenic amastigotes, wild-type AG83; type: cell-based; conditions: axenic amastigotes, mean ± σ, n = 4; for IC50: Leishmania donovani
Protocol: as §1, §3, §4, §5

[6] = test system: intracellular L.donovani amastigotes, AG83-R, PMM, in macrophages; assay: microbe, parasite or virus in culture; type: cell-based; conditions: for Selectivity index (SI), AG83-R, PMM: CC50/IC50, intracellular; for IC50: Leishmania donovani, Macrophage, read-out: Cellular IC50, AG83-R, PMM
Protocol: as §2, §6, §4, §5

[7] = test system: intracellular L.donovani amastigotes, AG83-R, SSG, in macrophages; assay: microbe, parasite or virus in culture; type: cell-based; conditions: for Selectivity index (SI), AG83-R, SSG: CC50/IC50, intracellular; for IC50: Leishmania donovani, Macrophage, read-out: Cellular IC50, AG83-R, SSG
Protocol: as §2, §6, §4, §5

[8] = Cytotoxicity studies (CC50) on peritoneal macrophages; type: cell-based, BALB/c mice; conditions: BALB/c, mouse, resident peritoneal macrophages, 48 h exposure, mean ± σ, n = 3
Protocol: (§7) Resident peritoneal macrophages were isolated from BALB/c mice. For the isolation, 1.5 mL of sterile thioglycolate medium was injected into the peritoneal cavity to induce non-infectious inflammation. Animals were sacrificed after 5 days, and peritoneal exudates were harvested by intraperitoneal lavage. Cold RPMI (6 mL) was injected into the peritoneal cavity. After 10 min, the injected fluid was withdrawn by the same syringe. From each animal, approximately 3-4 mL of medium was recovered. After centrifugation at 200 g for 15 min, macrophages were collected. […] The cytotoxicity of the drug specimen was evaluated by the CC50 value, which is the concentration required to kill 50% of the host cell population. Macrophages were first isolated from peritoneal lavage as described above. The cells were seeded into 96-well plates at 1x10^6 cells/mL in 200 μL of RPMI-1640 supplemented with 10% FCS, 20 mM L-glutamine, 16 mM NaHCO3, penicillin (50 U/mL) and streptomycin (50 μg/ mL) at 37°C in 5% CO2 for 4 h for adherence. To remove the non-adherent cells, each plate was washed two times with phosphate buffer saline (pH 7.2). […] Microscopic examinations were performed in duplicates with various concentrations of pure drugs or buparvaquone-loaded nanoparticles and also for control wells. The amastigotes cells were counted for all cases using a hemocytometer. The mean of the control wells was considered as 100% survival. The counts in the treated wells at various concentrations were converted into percentages. Giemsa-stained slides of the macrophages infected with amastigotes were observed under a light microscope. Then the numbers of amastigotes and infected macrophages per 100 cells were counted for each slide. The percentage (%) of inhibition was calculated by using the equation %[…]×100, (2) where C is the number of amastigotes/infected macrophages per 100 cells in the control well and T is the number of amastigotes/infected macrophages per 100 cells in the drug-treated well.

[9] = test system: intracellular L.donovani amastigotes, wild-type AG83, in macrophages; assay: Antileishmanial activity against intracellular amastigotes, wild-type AG83; type: cell-based; conditions: for Selectivity index (SI), AG83: CC50/IC50, intracellular; for IC50: Leishmania donovani, Macrophage, mean ± σ, n = 4, read-out: Cellular IC50, Wild-type AG83
Protocol: as §6, §4, §5

[10] = test system: wild-type AG83 promastigotes; assay: IC50 against wild-type AG83 promastigotes (used for generation of resistant strains); type: cell-based, L. donovani
Protocol: as §2

[11] = test system: resident peritoneal macrophages; assay: Cytotoxicity studies (CC50) on peritoneal macrophages; type: cell-based, BALB/c mice; conditions: 48 h exposure, values for SSG given in μg/ml
Protocol: as §7

L.donovani = test system: L.donovani; design: method as in PMID 25936561; conditions: L.donovani infection; cited from earlier work
liver parasite burden = test system: liver parasite burden; design: method as in PMID 14695832, PMID 17715126; conditions: BALB/c mice; cited from earlier work
[12] = axenic amastigotes, mean ± σ, n = 4
[13] = intracellular amastigotes, 72 h
[14] = axenic amastigotes, values for SSG given in μg/ml, mean ± σ, n = 4
[15] = intracellular amastigotes, 72 h, values for SSG given in μg/ml

| SMILES | Resistance index (RI), AG83-R, SSG [1] | IC50 [1] [µM] | Resistance index (RI), AG83-R, PMM [2] | IC50 [2] [µM] | Resistance index (RI), GE1 [3] | IC50 [3, 12] [µM] | Selectivity index (SI), GE1 [4] | IC50 [4, 13] [µM] | IC50 [5] [µM] | Selectivity index (SI), AG83-R, PMM [6] | IC50 ([6]; 72 h) [µM] | Selectivity index (SI), AG83-R, SSG [7] | IC50 ([7]; 72 h) [µM] | CC50 at 48 h [8] [µM] | Selectivity index (SI), AG83 [9] | IC50 [9, 13] [µM] | other results |
| --- | --- | --- | --- | --- | --- | --- | --- | --- | --- | --- | --- | --- | --- | --- | --- | --- | --- |
| C[C@@H]1[C@H](O)[C@@H](C)/C=C/C=C/C=C/C=C/C=C/C=C/C=C/[C@H](O[C@@H]2O[C@H](C)[C@@H](O)[C@H](N)[C@@H]2O)C[C@@H]2O[C@](O)(C[C@@H](O)C[C@@H](O)[C@H](O)CC[C@@H](O)C[C@@H](O)CC(=O)O[C@H]1C)C[C@H](O)[C@H]2C(=O)O [AmB, amphotericin B] | 1.1 ± 0.1 | 0.3 ± 0.1 | 1.2 ± 0.2 | 0.3 ± 0.1 | 1.1 ± 0.2 | 0.3 ± 0.1 | 90 ± 10 | 0.2 ± 0.1 | 0.2 ± 0.1 | 70 ± 10 | 0.3 ± 0.1 | 70 ± 10 | 0.2 ± 0.1 | 15 ± 2 | 80 ± 10 | 0.2 ± 0.1 |  |
| CCCCCCCCCCCCCCCCOP(=O)([O-])OCC[N+](C)(C)C [MF, miltefosine] | 1.3 ± 0.2 | 0.6 ± 0.1 | 1.1 ± 0.2 |  | 1.1 ± 0.3 | 0.5 ± 0.1 | 80 ± 10 | 0.5 ± 0.1 | 0.5 ± 0.1 | 70 ± 10 |  | 60 ± 5 | 0.7 ± 0.1 | 36 ± 4 | 100 ± 10 | 0.4 ± 0.1 |  |
| NC[C@@H]1O[C@H](O[C@H]2[C@@H](O)[C@H](O[C@@H]3[C@@H](O)[C@H](N)C[C@H](N)[C@H]3O[C@H]3O[C@H](CO)[C@@H](O)[C@H](O)[C@H]3N)O[C@@H]2CO)[C@H](N)[C@@H](O)[C@@H]1O [PMM, paromomycin] | 32 ± 3 | 384 ± 23 | 27 ± 2 | 327 ± 12 | 2.1 ± 0.3 | 25 ± 2 | 13 ± 2 | 20 ± 3 | 12 ± 1 | 2 ± 1 | 120 ± 10 | 2 ± 1 | 140 ± 10 | 260 ± 20 | 30 ± 5 | 9 ± 2 | IC50 ([10]; Leishmania donovani, medium 199, read-out: IC50 against the parasite): 10 µM |
| O.O.O.O.O.O.O.O.O.O=C([O-])[C@@H]1[O][Sb](=[O])([O][Sb]2(=[O])[O][C@H]([C@H](O)CO)[C@H](O)[C@H](C(=O)[O-])[O]2)[O][C@H]([C@H](O)CO)[C@@H]1O.[Na+].[Na+].[Na+] (stereo partly drawn) [SSG, sodium stibogluconate] | 38 ± 4 |  | 32 ± 3 |  | 4 ± 1 |  | 4 ± 2 |  |  | 2 ± 1 |  | 1 ± 1 |  |  | 15 ± 4 |  | Axenic IC50, AG83-R, SSG [1, 14]: 133 ± 15 µg/mL; Axenic IC50, AG83-R, PMM [2, 14]: 113 ± 15 µg/mL; Axenic IC50, GE1 [3, 14]: 14 ± 2 µg/mL; Cellular IC50, GE1 [4, 15]: 7.5 ± 0.3 µg/mL; Axenic IC50, Wild-type AG83 ([5]; values for SSG given in μg/ml): 3.5 ± 0.7 µg/mL; Cellular IC50, AG83-R, PMM [6, 15]: 20 ± 2 µg/mL; Cellular IC50, AG83-R, SSG [7, 15]: 22 ± 2 µg/mL; CC50 [11]: 27 ± 2 µg/mL; Cellular IC50, Wild-type AG83 [9, 15]: 1.8 ± 0.2 µg/mL; IC50 against the parasite ([10]; medium 199): 3.6 µg/mL |
| C[C@@H]1CC[C@H]2[C@@H](C)C(=O)O[C@@H]3O[C@@]4(C)CC[C@@H]1[C@]32OO4 [artemisinin] |  |  |  |  |  |  |  |  |  |  |  |  |  |  |  |  | Reduction of parasite burdens (liver and spleen) (L.donovani): ~ 50% |
| CC(C)(C)C1CCC(CC2=C(OP(=O)(O)O)C(=O)c3ccccc3C2=O)CC1 (stereo not drawn) [buparvaquone-3-phosphate] |  |  |  |  |  |  |  |  |  |  |  |  |  |  |  |  | Reduction in the liver parasite burden (liver parasite burden): 34% |
